Laboratory results: publication PMC4133117 (Biochemical pharmacology, 2014)

What was measured:
ABCB1 [1] = target: T1, ABCB1 (Homo sapiens, UniProt P08183); experiment: vanadate-sensitive ATPase stimulation in crude membranes; format: biochemical
ABCB1 [2] = target: T1, ABCB1

T1 sequence (P08183 whole entry): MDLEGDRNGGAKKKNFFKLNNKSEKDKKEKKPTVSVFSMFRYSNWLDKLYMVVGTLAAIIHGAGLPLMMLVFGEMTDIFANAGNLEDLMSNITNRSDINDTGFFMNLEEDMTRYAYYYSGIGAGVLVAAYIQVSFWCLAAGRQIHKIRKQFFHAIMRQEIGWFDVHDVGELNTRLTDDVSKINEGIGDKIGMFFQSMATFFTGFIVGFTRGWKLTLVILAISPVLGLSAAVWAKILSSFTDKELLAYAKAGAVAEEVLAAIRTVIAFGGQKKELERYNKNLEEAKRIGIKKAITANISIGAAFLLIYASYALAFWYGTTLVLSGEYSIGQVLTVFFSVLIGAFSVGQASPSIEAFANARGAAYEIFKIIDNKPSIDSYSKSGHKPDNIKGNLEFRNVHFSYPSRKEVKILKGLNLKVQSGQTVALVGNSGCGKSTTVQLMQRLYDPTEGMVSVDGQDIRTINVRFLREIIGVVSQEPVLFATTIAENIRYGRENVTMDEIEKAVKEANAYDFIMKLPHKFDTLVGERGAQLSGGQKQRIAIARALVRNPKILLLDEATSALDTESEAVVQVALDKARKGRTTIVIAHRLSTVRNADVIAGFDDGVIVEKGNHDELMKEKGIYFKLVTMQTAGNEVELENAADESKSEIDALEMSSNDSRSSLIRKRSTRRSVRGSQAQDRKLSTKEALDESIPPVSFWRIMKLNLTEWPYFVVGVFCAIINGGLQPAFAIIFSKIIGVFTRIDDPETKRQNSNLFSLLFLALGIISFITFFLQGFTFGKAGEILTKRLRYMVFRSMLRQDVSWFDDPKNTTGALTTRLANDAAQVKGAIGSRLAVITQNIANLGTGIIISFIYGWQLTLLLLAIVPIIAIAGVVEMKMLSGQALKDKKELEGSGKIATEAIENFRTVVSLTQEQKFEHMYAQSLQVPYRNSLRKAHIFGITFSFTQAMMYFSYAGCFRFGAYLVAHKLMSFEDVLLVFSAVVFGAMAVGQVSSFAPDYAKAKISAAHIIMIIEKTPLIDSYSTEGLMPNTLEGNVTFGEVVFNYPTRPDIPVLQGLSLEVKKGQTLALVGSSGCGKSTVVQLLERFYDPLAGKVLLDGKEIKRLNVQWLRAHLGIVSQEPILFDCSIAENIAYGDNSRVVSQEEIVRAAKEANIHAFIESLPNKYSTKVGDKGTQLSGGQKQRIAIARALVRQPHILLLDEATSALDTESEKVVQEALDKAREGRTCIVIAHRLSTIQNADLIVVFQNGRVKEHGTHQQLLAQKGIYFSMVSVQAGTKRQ

## CC1(C)CNc2cc(NC(=O)c3cccnc3NCc3ccncc3)ccc21 [motesanib]
ABCB1 [1]
  EC50: 893 nM

## CC(=O)O[C@H]1C(=O)[C@@]2(C)[C@H]([C@H](OC(=O)c3ccccc3)[C@]3(O)C[C@H](OC(=O)[C@H](O)[C@@H](NC(=O)c4ccccc4)c4ccccc4)C(C)=C1C3(C)C)[C@]1(OC(C)=O)CO[C@@H]1C[C@@H]2O [paclitaxel]
ABCB1 [2]
  radiolabelled efflux assay in KB-C2 vs KB-3-1 cells: significantly lower compared to that of parental KB-3-1 cells due to active transport of the [^3H]-paclitaxel by the ABCB1 transporter
